In patent US20210355107A1, “MULTI-SUBSTITUTED PYRIDONE DERIVATIVES AND MEDICAL USE THEREOF” (Beijing Yuezhikangtai Biomedicines Co., Ltd., priority 2018, published 2021):

Columns and labels:
kinase c-MET = target: T1, kinase c-MET (Homo sapiens, UniProt P08581); experiment: Mobility shift assay, inhibitory activity against kinase c-MET; format: biochemical; conditions: ATP at Km (35 μM), average of two independent experiments
T1 construct: purchased Carna 08-151
Protocol: (§1) In this test, mobility shift assay was used to test the inhibitory activity of compounds when ATP concentrations correspond to the Km of the kinases.
(§2) The concentration of test compound was 10-fold diluted from an initial concentration of 10 μM. The test result (IC50) was the average of two independent experiments.
(§3) For example, a compound at an initial concentration of 10 μM was adjusted to 500 μM with 100% DMSO, then serially diluted for 10 concentrations, and then subjected to 10-fold dilution with the buffer to prepare a diluted compound intermediate containing 10% DMSO, 5 μL of which was transferred to the 384-well plate.
(§4) 10 μL of the two enzyme solutions each was added to the 384-well plate and co-incubated with the compound for 10-15 min at room temperature.
(§5) 10 μL of the diluted substrate was added to the 384-well plate to initiate the reaction, which lasts for 1 h at 28° C.
(§6) 5) The conversion rate was read by Caliper Reader (Perkin Elmer) and the inhibition rate was calculated as the average of two tests.
(§7) 6) IC50 values were fitted with XL-fit software.

kinase Axl = target: T2, kinase Axl (Homo sapiens, UniProt P30530); experiment: Mobility shift assay, inhibitory activity against kinase Axl; format: biochemical; conditions: ATP at Km (81 μM), average of two independent experiments
T2 construct: purchased Carna 08-107
T2 sequence (P30530 473-894 limits assumed): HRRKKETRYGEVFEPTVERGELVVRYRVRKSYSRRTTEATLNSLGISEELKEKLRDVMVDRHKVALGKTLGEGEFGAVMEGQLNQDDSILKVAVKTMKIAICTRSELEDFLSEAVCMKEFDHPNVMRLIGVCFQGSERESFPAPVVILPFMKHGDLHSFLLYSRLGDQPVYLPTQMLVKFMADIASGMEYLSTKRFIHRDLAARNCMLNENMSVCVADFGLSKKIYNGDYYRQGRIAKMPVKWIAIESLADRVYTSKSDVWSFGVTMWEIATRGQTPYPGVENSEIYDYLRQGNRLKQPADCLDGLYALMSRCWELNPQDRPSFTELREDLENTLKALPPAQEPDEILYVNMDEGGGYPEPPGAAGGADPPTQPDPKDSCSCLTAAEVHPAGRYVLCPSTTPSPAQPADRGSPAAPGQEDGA
Protocol: as §1, §2, §3, §4, §5, §6, §7

EBC-1 cells = experiment: EBC-1 cell proliferation, CellTiter-Glo Luminescent Cell Viability Assay; format: cell-based; conditions: Homo sapiens, 72 h incubation, read-out: IC50 (nM) against EBC-1 cells
Protocol: Test Example 3: Inhibitory Activity of Compounds disclosed herein against EBC-1 Cells
Test method: the inhibitory activity of the compounds against EBC-1 cell proliferation was evaluated using CellTiter-Glo® Luminescent Cell Viability Assay Kit (Promega).
Test procedures: when thawing EBC-1 cells, the cell cryopreservation tube was shaken rapidly in a water bath at 37° C. to thaw the cells in 1 min. The cell suspension after thawing was mixed with RPMI1640 culture medium containing 10% FBS and centrifuged for 5 min at 1000 rpm, and the supernatant was discarded. The cell pellet was suspended in 5 mL of complete culture medium. The suspension was placed in a cell culture flask with a bottom area of 25 cm^2, and cultured in a cell incubator at 37° C./95% humidity/5% CO2. Cell passage was performed when cell confluence reached about 80%. When the cells were passaged, the original cell suspension was directly made uniform by pipetting. 1/6 of the cell suspension was kept, added with 5 mL of new complete culture medium and then made uniform by pipetting. The cell culture flask was then placed in a cell incubator for further culturing. Cell plating was performed when the cell confluence reached about 80% again. With reference to the method for cell passage, 1/6 cell suspension was kept for further culturing when the cells were plated, and the remaining 5/6 of cell suspension was placed in a 15 mL centrifuge tube. Cell viability was detected by trypan blue exclusion using an IC1000 cell counter (Countstar) to ensure that cell viability was above 90%. Cell suspension at a density of 3.33×10^4 viable cells/mL was prepared using complete culture medium, and 90 μL of the cell suspension was added into 96-well cell culture plates, so that the cell density in the cell culture plates (day 0 plate and test compound plate) was 3000 viable cells/well. A control group that contains no cell or compound but only complete culture medium and a control group that contains no compound but cells were set. The cell plates were incubated overnight in a cell incubator. […] 10 μL of the above solution was added into a corresponding cell culture plate to ensure that the initial concentration of the compound was 10 μM, the dilution factor of adjacent concentration was 3.16, and the DMSO content in the cell culture plate was 0.1%. The cell plates were then incubated in the cell incubator for 72 h. During detection, CellTiter-Glo reagent (namely CellTiter-Glo® […] cell viability test reagent, Promega, Cat. No. G7572, Lot. No. 0000310975) was melted, and the cell plate was equilibrated at room temperature for 30 min. The cell plate was added with the CellTiter-Glo reagent at 100 μL per well, and then shaken on a QB-9001 microporous quick shaker (Kylin-Bell) for 5 min to fully lyse the cells. The cell plate was left to stand at room temperature for 20 min to stabilize luminescence signals, and the luminescence value of each well was scanned by a Spectramax M3 multi-functional microplate reader (Molecular Devices) at full wavelength.
Test samples: example compounds of the present invention and cabozantinib (positive control compound).
Data analysis: cell viability was calculated for compounds at various concentrations using the following formula:
Cell viability(%)=(Lumtest compound−Lumculture solution control)/(Lumcell control−Lumculture solution control)×100%,
where Lum refers to the luminescence value of each well of the test compound plate read by the multi-functional microplate reader.
The data were analyzed using GraphPad Prism 7.0 software, fitted with nonlinear S-curve regression to give dose-response curves, and IC50 values were calculated therefrom.

T1 sequence (P08581 956-1390 limits assumed): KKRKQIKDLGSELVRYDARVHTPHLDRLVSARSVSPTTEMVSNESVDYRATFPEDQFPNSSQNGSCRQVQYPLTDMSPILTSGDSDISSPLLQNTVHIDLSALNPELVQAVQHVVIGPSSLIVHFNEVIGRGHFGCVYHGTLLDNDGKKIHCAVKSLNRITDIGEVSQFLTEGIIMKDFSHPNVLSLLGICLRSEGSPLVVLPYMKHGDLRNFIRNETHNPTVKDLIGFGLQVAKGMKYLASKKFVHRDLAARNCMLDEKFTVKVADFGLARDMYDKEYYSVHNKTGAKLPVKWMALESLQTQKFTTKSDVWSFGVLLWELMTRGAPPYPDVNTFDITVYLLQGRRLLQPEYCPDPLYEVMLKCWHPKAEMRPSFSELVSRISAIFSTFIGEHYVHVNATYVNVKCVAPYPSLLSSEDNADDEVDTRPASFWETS

IC50 (kinase c-MET)	IC50 (kinase Axl)	Structure (SMILES)	IC50 (EBC-1 cells)
14 nM	5.5 nM	CC(C)n1cc(C(=O)Nc2ccc(-c3cc(-c4cnn(C5CCNCC5)c4)cnc3N)c(F)c2)c(=O)n(-c2ccc(F)cc2)c1=O [Example 20, N-(4-(2-amino-5-(1-(piperidin-4-yl)-1H-pyrazol-4-yl)pyridin-3-yl)-3-fluorophenyl)-3-(4-fluorophenyl)-1-isopropyl-2,4-dioxo-1,2,3,4-tetrahydropyrimidine-5-carboxamide]	106 nM
19 nM	19 nM	COc1cc2nccc(Oc3ccc(NC(=O)c4cc(C)c(CN)n(-c5ccc(F)cc5)c4=O)cc3F)c2cc1OC [Example 26, 6-(aminomethyl)-N-(4-((6,7-dimethoxyquinolin-4-yl)oxy)-3-fluorophenyl)-1-(4-fluorophenyl)-5-methyl-2-oxo-1,2-dihydro-1,2-dihydropyridine-3-carboxamide]	132 nM
